Results published in the supplement of paper PMC11451515.

Assays:
Experiment in all cases: AUC of viability dose-response curve (% viability x log10 dose units); higher = less sensitive
Conditions in all cases: 48 h
[1] = system: NOMO1
How it was run: (§1)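 Leukemia cells adapted to each medium were seeded in 1536-well plates (500 or 1000 cells/well). They were dosed with library compounds in DMSO at 11 threefold doses, 47 μM to 0.79 nM, for 48 h at 37°C. CellTiter-Glo One luminescence was normalised per plate to DMSO and cell-free wells. Area under the curve was integrated by trapezoidal rule over log10 doses on a four-parameter log-logistic fit; curves exceeding full viability were scaled and curves failing quality control removed.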

[2] = system: SEM cells
How it was run: as §1

[3] = system: P12-Ichikawa
How it was run: as §1

[4] = RPMI 5 mM glucose + 10% dialyzed FBS

| Structure (SMILES) | AUC of viability dose-response curve ([1]; HPLM + 10% dialyzed FBS) | AUC of viability dose-response curve ([1]; RPMI 5 mM glucose + 10% FBS) | AUC of viability dose-response curve [1, 4] | AUC of viability dose-response curve ([2]; HPLM + 10% dialyzed FBS) | AUC of viability dose-response curve ([2]; RPMI 5 mM glucose + 10% FBS) | AUC of viability dose-response curve [2, 4] | AUC of viability dose-response curve ([3]; HPLM + 10% dialyzed FBS) | AUC of viability dose-response curve ([3]; RPMI 5 mM glucose + 10% FBS) | AUC of viability dose-response curve [3, 4] |
| --- | --- | --- | --- | --- | --- | --- | --- | --- | --- |
| CCn1c(C(=O)N(C2CC2)C2CC2)cc2c3c(ncn3C)c(Nc3cc(C)n(C)n3)nc21 | 472 | 473 | 464 | 454 | 446 | 435 | 466 | 473 | 467 |
| NC[C@H](O)c1ccc(O)c(O)c1 | 411 | 452 | 427 | 443 | 453 | 456 | 460 | 457 | 439 |
| CCCCN1CCC(CNC(=O)c2c3n(c4ccccc24)CCCO3)CC1 | 474 | 467 | 470 | 431 | 474 | 462 | 461 | 459 | 465 |
| CC1(C)CCC(C)(C)c2cc(NC(=O)c3ccc(C(=O)O)cc3)ccc21 | 455 | 445 | 435 | 464 | 465 | 451 | 463 | 470 | 469 |
| O=C(NOCC1CC1)c1ccc(F)c(F)c1Nc1ccc(I)cc1Cl | 362 | 389 | 382 | 455 | 440 | 434 | 447 | 429 | 450 |
| CN(C)c1ccc(-c2nc3c(N4CCN(CC(=O)Nc5nccs5)CC4)c(Cl)cnc3[nH]2)cc1 | 431 | 466 | 460 | 429 | 420 | 421 | 468 | 466 | 428 |
| CC(C)(C)[C@]1(O)C[C@@H]2OC(=O)C[C@@]23C(=O)O[C@@H]2OC(=O)[C@H](O)C213 (some centres not stated) | 452 | 436 | 452 | 471 | 444 | 436 | 447 | 458 | 452 |
| COc1ccc(/C=C/C(=O)Nc2ccccc2C(=O)O)cc1OC | 434 | 455 | 463 | 446 | 438 | 448 | 453 | 458 | 450 |
